Paper PMC11775380, “Discovery of Novel Nav1.7-Selective Inhibitors with the 1H-Indole-3-Propionamide Scaffold for Effective Pain Relief” (Research, 2025)

Experiments:
Assay type in all cases: cell-based
[1] = tested on: native Ca2+ current (Cav channels) in DRG neurons; test: Voltage-clamp recording of native Ca2+ current in DRG neurons; details: 10 μM; mouse DRG neurons
Method: To investigate the mechanism of action of WN2-R and facilitate animal model experiments, we used voltage-clamp recording to test the effects of WN2-R on the native Na^+-, K^+-, and Ca^2+-mediated currents in DRG neurons. […] Furthermore, the effects of WN2-R on membrane excitability were examined in small (<30 μm) DRG neurons from mice using current-clamp recordings.
DRG isolation and culture were performed according to our previous report. Briefly, C57BL/6 mice (weight 18 to 20 g, 6 to 8 weeks) were euthanized via cervical dislocation under anesthesia. Lumbar DRGs were isolated from the L4 to L5 segments of the lumbar spinal cord. The DRG neurons were subsequently dissociated through enzymatic digestion with collagenase (0.32 mg/ml) and trypsin (0.15 mg/ml) at 37 °C for 30 min, with intermittent shaking. After centrifugation at 800 rpm for 5 min at room temperature, the cells were seeded onto poly-L-lysine-coated coverslips and cultured in DMEM (Gibco) supplemented with 10% fetal bovine serum (Gibco). […]
For recording Nav currents of DRG neurons, the bath solution contains (in mM) 30 NaCl, 1 MgCl2, 1.8 CaCl2, 5 CsCl, 5 KCl, 25 D-glucose, 5 HEPES, 0.1 CdCl2, and TEA-Cl (pH 7.4 with NaOH), and the pipette solution contains (in mM) 135 CsCl, 10 NaCl, and 5 HEPES (pH 7.4 with CsOH). The Nav current program is recorded following the above method. […]

Nav1.7 I1612A = target: T1, Nav1.7 I1612A (Homo sapiens, UniProt Q15858, I1612A); test: Single site-directed mutagenesis, inhibition by patch clamp; details: 1 μM
T1 construct: expressed in transfected cells; host or cells: HEK293T
T1 sequence (Q15858 whole entry I1612A): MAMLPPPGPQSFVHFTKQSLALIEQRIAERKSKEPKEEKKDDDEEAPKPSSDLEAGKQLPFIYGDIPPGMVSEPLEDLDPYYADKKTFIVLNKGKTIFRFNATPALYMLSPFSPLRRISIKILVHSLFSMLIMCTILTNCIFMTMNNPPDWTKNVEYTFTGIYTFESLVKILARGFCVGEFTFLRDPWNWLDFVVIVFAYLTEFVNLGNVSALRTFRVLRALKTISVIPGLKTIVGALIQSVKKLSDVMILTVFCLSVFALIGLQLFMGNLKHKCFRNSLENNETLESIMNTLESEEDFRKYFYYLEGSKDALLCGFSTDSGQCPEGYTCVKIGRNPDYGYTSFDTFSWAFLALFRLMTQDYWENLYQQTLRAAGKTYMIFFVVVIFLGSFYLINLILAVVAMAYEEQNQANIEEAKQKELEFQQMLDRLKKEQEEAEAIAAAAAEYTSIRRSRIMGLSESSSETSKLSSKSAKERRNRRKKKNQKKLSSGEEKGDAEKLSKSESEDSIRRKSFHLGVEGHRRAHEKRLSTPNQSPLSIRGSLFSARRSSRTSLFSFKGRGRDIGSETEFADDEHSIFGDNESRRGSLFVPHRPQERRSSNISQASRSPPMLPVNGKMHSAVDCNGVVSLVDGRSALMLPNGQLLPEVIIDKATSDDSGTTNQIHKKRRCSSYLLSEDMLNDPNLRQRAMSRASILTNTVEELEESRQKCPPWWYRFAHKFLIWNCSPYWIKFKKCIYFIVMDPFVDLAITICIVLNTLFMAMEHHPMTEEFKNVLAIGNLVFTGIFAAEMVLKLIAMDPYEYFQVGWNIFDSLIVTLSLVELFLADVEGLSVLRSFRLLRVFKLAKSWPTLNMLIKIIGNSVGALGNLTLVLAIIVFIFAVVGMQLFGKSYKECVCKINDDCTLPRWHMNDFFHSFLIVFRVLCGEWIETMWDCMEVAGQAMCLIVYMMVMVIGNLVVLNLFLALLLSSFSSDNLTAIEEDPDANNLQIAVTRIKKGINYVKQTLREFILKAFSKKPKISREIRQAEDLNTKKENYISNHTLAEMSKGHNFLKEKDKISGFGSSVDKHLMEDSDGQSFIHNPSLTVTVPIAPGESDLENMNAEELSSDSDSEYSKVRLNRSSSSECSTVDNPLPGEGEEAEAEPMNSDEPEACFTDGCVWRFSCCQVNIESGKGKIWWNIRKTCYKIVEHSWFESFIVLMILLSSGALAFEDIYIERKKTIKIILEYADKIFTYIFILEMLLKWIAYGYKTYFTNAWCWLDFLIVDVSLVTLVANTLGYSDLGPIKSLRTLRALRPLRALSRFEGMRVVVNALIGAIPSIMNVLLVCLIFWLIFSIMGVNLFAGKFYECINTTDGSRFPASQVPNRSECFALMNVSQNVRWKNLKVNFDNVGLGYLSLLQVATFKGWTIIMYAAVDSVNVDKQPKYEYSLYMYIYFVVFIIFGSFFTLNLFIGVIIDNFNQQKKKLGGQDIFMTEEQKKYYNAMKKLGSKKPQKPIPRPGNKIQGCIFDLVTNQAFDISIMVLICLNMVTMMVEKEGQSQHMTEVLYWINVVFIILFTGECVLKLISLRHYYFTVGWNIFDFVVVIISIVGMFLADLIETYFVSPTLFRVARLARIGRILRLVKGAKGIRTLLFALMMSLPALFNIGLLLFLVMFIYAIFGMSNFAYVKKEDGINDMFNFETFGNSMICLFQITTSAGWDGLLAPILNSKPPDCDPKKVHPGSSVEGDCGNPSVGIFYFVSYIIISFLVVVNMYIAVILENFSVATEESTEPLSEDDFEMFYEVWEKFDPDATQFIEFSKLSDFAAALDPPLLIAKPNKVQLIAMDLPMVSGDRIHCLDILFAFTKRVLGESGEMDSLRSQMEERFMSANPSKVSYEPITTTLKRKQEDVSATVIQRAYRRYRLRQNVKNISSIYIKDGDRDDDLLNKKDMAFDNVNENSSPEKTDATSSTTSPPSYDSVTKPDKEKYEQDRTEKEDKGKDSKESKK
T1 sequence (Q07699 19-218 partner): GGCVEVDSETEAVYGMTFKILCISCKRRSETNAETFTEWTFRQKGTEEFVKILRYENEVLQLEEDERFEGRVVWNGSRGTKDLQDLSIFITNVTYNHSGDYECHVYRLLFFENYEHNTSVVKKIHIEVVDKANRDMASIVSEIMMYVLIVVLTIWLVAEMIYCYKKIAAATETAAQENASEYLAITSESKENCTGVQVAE
T1 sequence (O60939 30-215 partner): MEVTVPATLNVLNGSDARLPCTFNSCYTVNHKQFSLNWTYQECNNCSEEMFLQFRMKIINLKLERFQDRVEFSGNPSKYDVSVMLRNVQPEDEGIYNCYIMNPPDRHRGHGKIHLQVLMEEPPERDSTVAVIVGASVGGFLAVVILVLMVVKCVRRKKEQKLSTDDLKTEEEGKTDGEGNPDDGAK
Method: (§1) The amino acids depicted in Fig. 4C were individually mutated to alanine or glycine to perform single site-directed mutagenesis. Subsequently, the inhibition rates of these mutations against WN2-R were measured at a concentration of 1 μM (Fig. 4D). […] While single site-directed mutagenesis did affect the antagonistic activity of WN2-R, it did so to a limited extent, as the presumed induced-fit effect typically arises from the concerted movement of multiple residues.
(§2) Whole-cell patch-clamp recordings were conducted at 25 ± 2 °C, utilizing an EPC 10USB patch-clamp amplifier (HEKA Elektronik, Lambrecht, Germany). Pipettes, with access resistance between 2.0 and 3.0 MΩ, were pulled from borosilicate glass capillary tubes using a 2-step vertical microelectrode puller (PC-10, Narishige Group, Tokyo, Japan). Voltage-clamp recordings were obtained with PatchMaster software v2 × 73 (HEKA Elektronik) 5 min after establishing whole-cell configuration, sampled at 20 kHz, and filtered at 5 kHz. To minimize voltage errors, 80% series resistance compensation was applied. Pipettes were filled with 140 mM CsF, 10 mM NaCl, 1 mM EGTA, and 10 mM HEPES (pH=7.4, adjusted with CsOH). The external solution contained 140 mM NaCl, 2 mM CaCl2, 1 mM MgCl2, 5 mM KCl, 10 mM HEPES, and 10 mM glucose (pH=7.4, adjusted with NaOH). IC50 values were determined in HEK293T or ND7/23 cell lines by voltage clamping at −80 mV, followed by stepping to the V1/2 of inactivation for 8 s to facilitate compound binding.

Nav1.7 F1609A = target: T2, Nav1.7 F1609A (Homo sapiens, UniProt Q15858, F1609A); test: as above; details: 1 μM
T2 construct: expressed in transfected cells; host or cells: HEK293T
T2 sequence (Q15858 whole entry F1609A): as the sequence (Q15858 whole entry I1612A) above, with F1609A, A1612I counted along it
T2 sequence (Q07699 19-218 partner): as the sequence (Q07699 19-218 partner) above
T2 sequence (O60939 30-215 partner): as the sequence (O60939 30-215 partner) above
Method: as §1, §2

Nav1.7 T1544A = target: T3, Nav1.7 T1544A (Homo sapiens, UniProt Q15858, T1544A); test: as above; details: 1 μM
T3 construct: expressed in transfected cells; host or cells: HEK293T
T3 sequence (Q15858 whole entry T1544A): as the sequence (Q15858 whole entry I1612A) above, with T1544A, A1612I counted along it
T3 sequence (Q07699 19-218 partner): as the sequence (Q07699 19-218 partner) above
T3 sequence (O60939 30-215 partner): as the sequence (O60939 30-215 partner) above
Method: as §1, §2

Nav1.7 A1596G = target: T4, Nav1.7 A1596G (Homo sapiens, UniProt Q15858, A1596G); test: as above; details: 1 μM
T4 construct: expressed in transfected cells; host or cells: HEK293T
T4 sequence (Q15858 whole entry A1596G): as the sequence (Q15858 whole entry I1612A) above, with A1596G, A1612I counted along it
T4 sequence (Q07699 19-218 partner): as the sequence (Q07699 19-218 partner) above
T4 sequence (O60939 30-215 partner): as the sequence (O60939 30-215 partner) above
Method: as §1, §2

Nav1.7 N1551A = target: T5, Nav1.7 N1551A (Homo sapiens, UniProt Q15858, N1551A); test: as above; details: 1 μM
T5 construct: expressed in transfected cells; host or cells: HEK293T
T5 sequence (Q15858 whole entry N1551A): as the sequence (Q15858 whole entry I1612A) above, with N1551A, A1612I counted along it
T5 sequence (Q07699 19-218 partner): as the sequence (Q07699 19-218 partner) above
T5 sequence (O60939 30-215 partner): as the sequence (O60939 30-215 partner) above
Method: as §1, §2

Nav1.7 R1613A = target: T6, Nav1.7 R1613A (Homo sapiens, UniProt Q15858, R1613A); test: as above; details: 1 μM
T6 construct: expressed in transfected cells; host or cells: HEK293T
T6 sequence (Q15858 whole entry R1613A): as the sequence (Q15858 whole entry I1612A) above, with A1612I, R1613A counted along it
T6 sequence (Q07699 19-218 partner): as the sequence (Q07699 19-218 partner) above
T6 sequence (O60939 30-215 partner): as the sequence (O60939 30-215 partner) above
Method: as §1, §2

Nav1.7 Y1548A = target: T7, Nav1.7 Y1548A (Homo sapiens, UniProt Q15858, Y1548A); test: as above; details: 1 μM
T7 construct: expressed in transfected cells; host or cells: HEK293T
T7 sequence (Q15858 whole entry Y1548A): as the sequence (Q15858 whole entry I1612A) above, with Y1548A, A1612I counted along it
T7 sequence (Q07699 19-218 partner): as the sequence (Q07699 19-218 partner) above
T7 sequence (O60939 30-215 partner): as the sequence (O60939 30-215 partner) above
Method: as §1, §2

Nav1.7 M1593A = target: T8, Nav1.7 M1593A (Homo sapiens, UniProt Q15858, M1593A); test: as above; details: 1 μM
T8 construct: expressed in transfected cells; host or cells: HEK293T
T8 sequence (Q15858 whole entry M1593A): as the sequence (Q15858 whole entry I1612A) above, with M1593A, A1612I counted along it
T8 sequence (Q07699 19-218 partner): as the sequence (Q07699 19-218 partner) above
T8 sequence (O60939 30-215 partner): as the sequence (O60939 30-215 partner) above
Method: as §1, §2

Compound: Cc1ccc(Cn2cc([C@H](CC(=O)NCCN(C)C)c3ccc(F)cc3)c3ccccc32)cc1 [WN2-R]
- Effect on native Ca2+ current [1]: almost no effect
- Inhibition rate on the mutant relative to wild type (Nav1.7 I1612A): 30.6 % of WT
- Effect of the mutation on antagonistic activity (Nav1.7 F1609A): minimal impact
- Inhibition rate on the mutant relative to wild type (Nav1.7 T1544A): 60.7 % of WT
- Effect of the mutation on antagonistic activity (Nav1.7 A1596G): exerted an influence
- Inhibition rate on the mutant relative to wild type (Nav1.7 N1551A): 58.9 % of WT
- Inhibition rate on the mutant relative to wild type (Nav1.7 R1613A): 57.4 % of WT
- Effect of the mutation on antagonistic activity (Nav1.7 Y1548A): minimal impact
- Inhibition rate on the mutant relative to wild type (Nav1.7 M1593A): 57.1 % of WT
